# Assay results from patent publication US20190015423A1, “REGULATION OF GENE EXPRESSION BY MODULATING PRIMARY CILIA LENGTH” (THE TRUSTEES OF COLUMBIA UNIVERSITY IN THE CITY OF NEW YORK, priority 2016, published 2019).
# “Also recorded” adds a separate entry of the source. Counter-ions that a name gives are not always drawn.
# Experiments:
# MLO-Y4 osteocytes [1] = experiment: Oscillatory fluid flow-induced mRNA expression (COX-2, OPN, AC6), flow vs no flow; format: cell-based; details: for COX-2 mRNA response to flow (in words) / OPN mRNA response to flow (in words): fenoldopam 16 hours, flow 1 hour, relative to GAPDH
# MLO-Y4 osteocytes [2] = experiment: mRNA expression (AC6, IFT88) by quantitative real-time PCR, no flow; format: cell-based; details: for IFT88 mRNA expression in untransfected cells: fenoldopam
# [3] = Adverse effects of drug treatment: body, kidney and liver weight, H&E histology, bone ultrastructure, injection site; format: in vivo, mice; details: fenoldopam 20 mg/kg; for visible bone ultrastructure: loaded ulnae
# Description: Mice were housed in the Columbia University Barrier Facility and fed ad libidum. All procedures performed were in accordance with Columbia University Institutional Animal Care and Use Committee guidelines.
# Kidneys and liver were dissected from animals, weighed, fixed in 10% formalin, and stored in 70% ethanol before being paraffin embedded. 5 μm thick longitudinal sections were made, and samples were stained with hematoxylin and eosin to visualize tissue structure. Images were captured at 4× magnification. Kidney function was broadly examined by urine creatinine concentration. […] Hydrophobic sand (Lab Sand) was used for urine sample collection, and analysis was performed using a total urine creatinine kit (Cayman Chemical).
# [4] = μCT analysis of non-loaded ulnae; format: in vivo, mice; details: for μCT: normal bone properties / microarchitecture (in words): 7 days, non-loaded ulnar midshaft
# Protocol: Non-loaded ulnae were used for μCT analysis. Samples were imaged with a Scanco ViaCT 80 at 10.5 μm isotropic resolution. Images were processed using a Gaussian filter and global threshold to segment bone volumes. Ulnar midshafts were imaged and used to assess cortical bone, while the proximal epiphysis was used to examine ulnar trabecular bone. Cortical bone analysis was performed to determine total area, cortical area, marrow area, bone volume fraction (BV/TV), cortical thickness, moment of inertia (Imax and Imin), and bone mineral density (BMD). Trabecular analyses included BV/TV, connectivity density, trabecular number, trabecular thickness, trabecular spacing, and BMD.
# C3H10T1/2 MSCs = experiment: Flow-induced paracrine signaling: conditioned media of treated osteocytes on MSCs (OSX mRNA); format: cell-based; details: osteocytes treated with fenoldopam 10 μM 16 hours; MSCs cultured 48 hours in conditioned media
# Protocol: Osteocytes were seeded at 2800 cells/cm2 for 72 hours before application of fluid flow. MC3T3 osteoblasts were cultured in MEMα supplemented with 10% FBS and 1% P/S. Osteoblasts were seeded at 2000 cells/cm2 72 hours before receiving conditioned media. C3H10T1/2 MSCs were cultured in DMEM low glucose (Life Technologies) supplemented with 10% FBS and 1% P/S, and seeded at 1100 cells/cm2 72 hours before culture with conditioned media 150. […] Osteocytes were cultured on rectangular flasks (8.2×9.2 cm; 12.5 ml of media) on a rocking platform which oscillated at a frequency of 0.33 Hz with an amplitude of 1.3 cm, supplying 0.08 Pa shear stress for 2, 6, 12, or 24 hours, FIG. 4.2. Shear stress generated by oscillatory fluid flow was calculated as previously performed 153. 12 hours of fluid flow was used in all experiments. Cells were also cultured in static conditions as a no flow control. Conditioned media was collected from osteocytes immediately upon completion of rocking, and used to culture osteoblasts or MSCs for 24 or 48 hours, respectively. […] Gene expression was analyzed by quantitative real-time PCR using primers and probes (Life Technologies) for analysis of osteopontin, OPN (Mm00436767_m1), osterix, OSX (Mm04209856_m1), and GAPDH (4351309). […]
# MC3T3 osteoblasts = experiment: Flow-induced paracrine signaling: conditioned media of treated osteocytes on osteoblasts (OPN mRNA); format: cell-based; details: osteocytes treated with fenoldopam 10 μM 16 hours; 12 hrs flow; osteoblasts cultured 24 hours
# C57Bl/6 mice = experiment: Load-induced bone formation: compressive ulnar loading and dynamic histomorphometry; format: in vivo; details: ulnar load final 3 days
# Description: All data are shown in reference to the non-loaded contralateral limb as control. […] On day 4-6 the mice were subjected to daily axial compressive ulnar loading. Mice were placed under isoflurane anesthesia and forelimbs were placed between two loading cups controlled by an electromagnetic loading system with feedback control (Bose, ELF 3220). An initial 0.1 N preload was applied, followed by 3 N of cyclic compression applied with a 2 Hz sine wave for 120 cycles, generating a strain gage verified average peak deformation of 1895 μstrain. On day 8, mice were subcutaneously injected with calcein (10 mg/kg) and alizarin red (70 mg/kg) on day 12. Mice were euthanized on day 18 and prepared for dynamic histomorphometric analysis.
# Compressive ulnar loading was applied on days 5-7 to mechanically stimulate bone (3N at 2 Hz for 120 cycles) [9].
# On the final three days of drug or control injection, animals were also subjected to compressive ulnar load at a peak load of 3 N using a 2 Hz sine wave for 120 cycles, as previously described (Temiyasathit, S. et al. PLoS One 7, (2012); Lee, K. L. et al. FASEB J. 28, 1157-1165 (2014)). Contralateral limbs served as a non-loaded control. 2 days following load, mice were treated with 10 mg/kg calcein (Sigma), and 4 days later 70 mg/kg alizarin (Sigma), with mice being sacrificed 6 days later.
# Dynamic histomorphometry was performed as previously described, measuring the amount and separation of calcein and alizarin labels to quantify mineralizing surface (rMS/BS), mineral apposition rate (rMAR), and bone formation rate (rBFR/BS) relative to non-loaded controls (Temiyasathit, S. et al. PLoS One 7, (2012); Lee, K. L. et al. FASEB J. 28, 1157-1165 (2014)). Left and right ulnae were dissected and preserved in ethanol. Samples were then infiltrated with methyl methacrylate, and embedded in methyl methacrylate and benzoyl peroxide. Transverse sections of the ulnar midshaft were imaged on a laser scanning confocal microscope (Olympus Fluoview FV1000). Measurements of outer bone perimeter (OP), single label perimeter (SL), double label perimeter (DL), and double label area (DA) were made in ImageJ. The mineralizing surface relative to outer bone surface (MS/BS), mineral apposition rate (MAR), and bone formation rate (BFS/BS) were calculated as:
# Relative measurements—rMS/BS, rMAR, rBFR/BS—were determined by subtracting non-loaded from loaded ulnae to display differences due to mechanical load.
# [5] = 10 μM fenoldopam 16 h, flow 1 hr, fold change flow over no flow
# [6] = fenoldopam on AC6 siRNA treated cells
# [7] = fenoldopam treatment of osteocytes
# [8] = Table 1, ulnar midshaft, Female
# [9] = fenoldopam 20 mg/kg s.c. 7 consecutive days, relative to non-loaded limb, vs vehicle
# [10] = fenoldopam 20 mg/kg s.c. 7 consecutive days, relative to non-loaded limb, vs vehicle, listed as Fenoldopam
# [11] = fenoldopam 50 mg/kg (Fen-High) s.c. 7 consecutive days
structure (smiles),measurement,setting,value
"Oc1ccc(C2CNCCc3c2cc(O)c(O)c3Cl)cc1 (stereo not drawn) [fenoldopam, Fenoldopam mesylate]",elevated flow-induced COX-2 mRNA expression compared to unlengthened controls,MLO-Y4 osteocytes [1]; [5],124%±27%
same,elevated flow-induced OPN mRNA expression compared to unlengthened controls,MLO-Y4 osteocytes [1]; [5],48%±8%
same,COX-2 mRNA response to flow (in words),MLO-Y4 osteocytes [1],significant increases
same,OPN mRNA response to flow (in words),MLO-Y4 osteocytes [1],significant increases
same,COX-2 mRNA response to flow (in words),MLO-Y4 osteocytes [1]; listed as Fenoldopam,increased
same,OPN mRNA response to flow (in words),MLO-Y4 osteocytes [1]; listed as Fenoldopam,increased
same,AC6 mRNA expression in AC6 siRNA treated cells under flow,MLO-Y4 osteocytes [1]; [6],not recovered
same,flow-induced OPN mRNA expression in AC6 siRNA treated cells,MLO-Y4 osteocytes [1]; [6],not recovered
same,flow stimulated OPN expression in IFT88 siRNA treated cells (in words),MLO-Y4 osteocytes [1]; fenoldopam on IFT88 siRNA treated cells,able to recover
same,recovery of flow-induced OPN response compared to IFT88 siRNA and vehicle treated cells,"MLO-Y4 osteocytes [1]; fenoldopam on IFT88 siRNA treated cells, flow 1 h",52%±1%
same,IFT88 mRNA expression in untransfected cells,MLO-Y4 osteocytes [2],no significant effect
same,AC6 mRNA expression (in words),MLO-Y4 osteocytes [2]; [7],significantly increases
same,increase in AC6 mRNA expression,MLO-Y4 osteocytes [2]; [7],20%±8%
same,IFT88 mRNA expression in untransfected cells,MLO-Y4 osteocytes [2]; listed as Fenoldopam,did not alter
same,visible bone ultrastructure,"[3]; 7 days, vs vehicle control",no difference
same,visible bone ultrastructure,"[3]; 7 days, vs vehicle control, listed as Fenoldopam",no qualitative change
same,kidney morphology assessed by H&E stain,"[3]; 7 days, vs vehicle control",remained unchanged
same,kidney weight,"[3]; 7 days, vs vehicle control",remained unchanged
same,mouse weight,"[3]; 7 days, vs vehicle control",remained unchanged
same,kidney histology,[3]; preliminary study,no abnormalities or cysts
same,kidney weight to body mass measurements,[3]; preliminary study,no different than vehicle controls
same,Cortical area,[4]; [8],0.310 ± 0.003 mm^2
same,Cortical thickness,[4]; [8],0.173 ± 0.006 mm
same,Imax,[4]; [8],0.029 ± 0.001 mm^4
same,Imin,[4]; [8],0.005 ± 0.000 mm^4
same,Porosity,[4]; [8],0.131 ± 0.006%
same,Total area,"[4]; Table 1, ulnar midshaft, Female, fenoldopam 20 mg/kg 7 days",0.357 ± 0.005 mm^2
same,Cortical area,"[4]; Table 1, ulnar midshaft, Male",0.320 ± 0.023 mm^2
same,Cortical thickness,"[4]; Table 1, ulnar midshaft, Male",0.169 ± 0.009 mm
same,Imax,"[4]; Table 1, ulnar midshaft, Male",0.033 ± 0.007 mm^4
same,Imin,"[4]; Table 1, ulnar midshaft, Male",0.004 ± 0.001 mm^4
same,Porosity,"[4]; Table 1, ulnar midshaft, Male",0.134 ± 0.003%
same,Total area,"[4]; Table 1, ulnar midshaft, Male, fenoldopam 20 mg/kg 7 days",0.370 ± 0.027 mm^2
same,Cortical area,"[4]; Table 5, cortical, Female",0.310 ± 0.003 mm^2
same,Cortical thickness,"[4]; Table 5, cortical, Female",0.173 ± 0.006 mm
same,Imax,"[4]; Table 5, cortical, Female",0.029 ± 0.001 mm^4
same,Imin,"[4]; Table 5, cortical, Female",0.005 ± 0.000 mm^4
same,Cortical area,"[4]; Table 5, cortical, Male",0.320 ± 0.009 mm^2
same,Cortical thickness,"[4]; Table 5, cortical, Male",0.169 ± 0.004 mm
same,Imax,"[4]; Table 5, cortical, Male",0.033 ± 0.003 mm^4
same,Imin,"[4]; Table 5, cortical, Male",0.004 ± 0.001 mm^4
same,Marrow area,"[4]; Table 5, cortical, Male",0.049 ± 0.001 mm^2
same,Total area,"[4]; Table 5, ulnar midshaft - cortical, non-loaded, Female, 20 mg/kg fenoldopam",0.357 ± 0.005 mm^2
same,Total area,"[4]; Table 5, ulnar midshaft - cortical, non-loaded, Male, 20 mg/kg fenoldopam",0.370 ± 0.010 mm^2
same,μCT: normal bone properties / microarchitecture (in words),[4]; fenoldopam 20 mg/kg,no change; also recorded: no difference
same,μCT: normal bone properties / microarchitecture (in words),"[4]; fenoldopam 20 mg/kg, listed as Fenoldopam",did not result in any change
same,"μCT: normal cortical bone properties including thickness, area, and moment of inertia","[4]; fenoldopam 20 mg/kg, preliminary study, data not shown",no change
same,"MSC osteogenic differentiation, as measured by osterix (OSX) expression",C3H10T1/2 MSCs,significantly enhanced
same,"osteoblast osteogenic gene (osteopontin, OPN) expression after conditioned media from flow-stimulated osteocytes",MC3T3 osteoblasts,increased; also recorded: significantly enhanced
same,bone formation rate (rBFR/BS),C57Bl/6 mice; [9],significantly increased; also recorded: significant increases; also recorded: significantly enhanced
same,mineral apposition rate (rMAR),C57Bl/6 mice; [9],significantly increased; also recorded: significant increases
same,mineralizing surface (rMS/BS),C57Bl/6 mice; [9],remained unchanged; also recorded: neither fenoldopam concentration elicited a significant increase
same,bone formation rate (rBFR/BS),C57Bl/6 mice; [10],enhances
same,mineralizing surface (rMS/BS),C57Bl/6 mice; [10],no effect
same,bone formation rate (rBFR/BS),C57Bl/6 mice; [11],no statistically significant difference; also recorded: no effect; also recorded: elicited no bone formation response
same,mineral apposition rate (rMAR),C57Bl/6 mice; [11],no statistically significant difference; also recorded: no effect
same,mineralizing surface (rMS/BS),C57Bl/6 mice; [11],no statistically significant difference; also recorded: no effect
